Experimental data published in ChEMBL document CHEMBL1201862, “PubChem BioAssay data set” (2004).
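Cultured in 96-well plates, cells were exposed to test compound for 48 hours across five concentrations. GI50: concentration for 50% inhibition of growth.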 Active and inactive are the calls of the source. Rule as the data show it: active = GI50 up to about 1.1 µM and inactive = higher.

Tests used:
Assay in all cases: NCI tumour cell line growth inhibition, 48 h
[1] = tested on: SN12C
[2] = tested on: SF-539
[3] = tested on: ACHN
[4] = tested on: RPMI-8226
[5] = tested on: SK-OV-3
[6] = tested on: M14
[7] = tested on: HCT-15
[8] = tested on: TK-10
[9] = tested on: SNB-75
[10] = tested on: NCI-H23
[11] = tested on: UO-31
[12] = tested on: HOP-62
[13] = tested on: UACC-62
[14] = tested on: NCI-H522
[15] = tested on: K562
[16] = tested on: CAKI-1

SMILES	GI50 [1]	GI50 [2]	GI50 [3]	GI50 [4]	GI50 [5]	GI50 [6]	GI50 [7]	GI50 [8]	GI50 [9]	GI50 [10]	GI50 [11]	GI50 [12]	GI50 [13]	GI50 [14]	GI50 [15]	GI50 [16]
Cc1csc(=S)n1OC(=O)NC1CCCCC1	> 100 µM (inactive)	> 100 µM (inactive)	> 100 µM (inactive)	23.6 µM (inactive)	> 100 µM (inactive)	40.9 µM (inactive)	> 100 µM	> 100 µM (inactive)	> 79.4 µM (inactive)	> 21.9 µM (inactive)	> 100 µM (inactive)	> 100 µM (inactive)	> 38.1 µM (inactive)	18.1 µM (inactive)	31 µM (inactive)	> 100 µM (inactive)
COC1(OC)CC2C(=O)N(Cc3ccccc3)C1CC2S(=O)(=O)c1ccccc1 (centres undefined)	> 100 µM (inactive)	> 100 µM (inactive)	> 100 µM (inactive)	> 100 µM (inactive)	> 100 µM (inactive)	> 100 µM (inactive)	> 100 µM	> 100 µM (inactive)	> 100 µM (inactive)	> 100 µM (inactive)	62.1 µM (inactive)	> 100 µM (inactive)	> 100 µM (inactive)	> 100 µM (inactive)	> 100 µM (inactive)	
CCOC(=O)NN(C(=O)OCC)C(C(=O)c1ccc(Cl)cc1)=C1NCCN1	> 100 µM (inactive)	> 100 µM (inactive)	> 100 µM (inactive)		> 100 µM (inactive)	> 100 µM (inactive)		> 100 µM (inactive)	52.4 µM (inactive)	> 100 µM (inactive)	> 100 µM (inactive)	> 100 µM (inactive)	> 100 µM (inactive)	> 100 µM (inactive)	> 100 µM (inactive)	> 100 µM (inactive)
C/N=c1\ss/c(=N\C(=S)N(C)C)n1C	> 100 µM (inactive)	> 100 µM (inactive)	> 100 µM (inactive)	> 100 µM (inactive)	> 100 µM (inactive)	> 100 µM (inactive)	> 100 µM	41.1 µM (inactive)	> 100 µM (inactive)	> 100 µM (inactive)	> 100 µM (inactive)	> 100 µM (inactive)	> 100 µM (inactive)		> 100 µM (inactive)	> 100 µM (inactive)
CCCCCCCCCC(=O)CC(=O)c1ccc(O)cc1O	27.3 µM (inactive)	26.5 µM (inactive)	28.6 µM (inactive)	19.5 µM (inactive)	> 100 µM (inactive)	22.1 µM (inactive)	30.2 µM	40.8 µM (inactive)	33.6 µM (inactive)	25.6 µM (inactive)	19.7 µM (inactive)	19.8 µM (inactive)	21.2 µM (inactive)	18.6 µM (inactive)	29.1 µM (inactive)	23.7 µM (inactive)
Cc1ccc(NC(=S)SCCC(=O)O)cc1	> 100 µM (inactive)	> 100 µM (inactive)	> 100 µM (inactive)	> 100 µM (inactive)		> 100 µM (inactive)	> 100 µM	> 100 µM (inactive)		> 100 µM (inactive)	> 100 µM (inactive)	> 100 µM (inactive)		> 100 µM (inactive)	> 100 µM (inactive)	81.8 µM (inactive)
CCOc1ccc(NC2=NC(=O)C(CC(=O)Nc3ccccc3[N+](=O)[O-])S2)cc1 (centres undefined)	> 100 µM (inactive)	> 100 µM (inactive)	> 100 µM (inactive)	> 100 µM (inactive)		> 100 µM (inactive)	> 100 µM	> 100 µM (inactive)	> 100 µM (inactive)	> 100 µM (inactive)	> 100 µM (inactive)		94 µM (inactive)	> 100 µM (inactive)	> 100 µM (inactive)	> 100 µM (inactive)
CCNC1C2(CCCCC2)NC(=O)C12CCCCC2 (centres undefined)		> 100 µM (inactive)	> 100 µM (inactive)	> 100 µM (inactive)	> 100 µM (inactive)	> 100 µM (inactive)	> 100 µM	> 100 µM (inactive)	> 100 µM (inactive)	> 100 µM (inactive)	> 100 µM (inactive)	> 100 µM (inactive)	> 100 µM (inactive)		> 100 µM (inactive)	> 100 µM (inactive)
CCC12C=CCN3CCC4(C(=C(C(=O)OC)C1)Nc1ccccc14)[C@H]32 (some centres undefined)		20.5 µM (inactive)	64 µM (inactive)		21.8 µM (inactive)	21.6 µM (inactive)	40.3 µM	68.9 µM (inactive)	22 µM (inactive)	28.4 µM (inactive)	65.2 µM (inactive)		21.3 µM (inactive)	22.1 µM (inactive)	18.8 µM (inactive)	> 100 µM (inactive)
O=C(NCCNCCO)N/N=C/c1ccccc1	> 100 µM (inactive)	> 100 µM (inactive)	> 100 µM (inactive)		> 100 µM (inactive)	> 100 µM (inactive)	> 100 µM	> 100 µM (inactive)	> 100 µM (inactive)	> 100 µM (inactive)			> 100 µM (inactive)	> 100 µM (inactive)	> 100 µM (inactive)	
CCOC(=O)C(Cc1c[nH]c2cc([N+](=O)[O-])ccc12)NS(=O)(=O)c1ccc2ccccc2c1 (centres undefined)	18.7 µM (inactive)	17.5 µM (inactive)	23.6 µM (inactive)	22 µM (inactive)	23.4 µM (inactive)	19 µM (inactive)	18.7 µM	26.4 µM (inactive)	17.1 µM (inactive)	21.9 µM (inactive)	22.8 µM (inactive)	15.7 µM (inactive)	16.7 µM (inactive)	16.3 µM (inactive)	18.1 µM (inactive)	
CO[C@@]12CC(=O)/C(=C(O)\C=C\c3ccccc3)C(=O)[C@]1(OC)Cc1ccccc1O2	30.6 µM (inactive)	24 µM (inactive)	25.4 µM (inactive)		54 µM (inactive)	28.1 µM (inactive)	20 µM	42.8 µM (inactive)	77.1 µM (inactive)	20.6 µM (inactive)	40 µM (inactive)	21.6 µM (inactive)	21.9 µM (inactive)	29.9 µM (inactive)	33.7 µM (inactive)	
COC1=CCC=C(C[C@@H]2NCCc3cc(OC)c(OC)cc32)C1	> 100 µM (inactive)	> 100 µM (inactive)	> 100 µM (inactive)	> 100 µM (inactive)	> 100 µM (inactive)	> 100 µM (inactive)	> 100 µM	> 100 µM (inactive)	> 100 µM (inactive)	> 100 µM (inactive)	> 100 µM (inactive)	> 100 µM (inactive)	> 100 µM (inactive)	> 100 µM (inactive)	> 100 µM (inactive)	> 100 µM (inactive)
CCOC(=O)NC(=O)c1cn(C2OC(COC(=O)CCCCCCCCC(=O)OCC3OC(n4cc(C(=O)NC(=O)OCC)c(=O)[nH]c4=O)C4OC(C)(C)OC34)C3OC(C)(C)OC32)c(=O)[nH]c1=O (centres undefined)	83.8 µM (inactive)	> 100 µM (inactive)	> 100 µM (inactive)	44 µM (inactive)		63.4 µM (inactive)	> 100 µM	> 100 µM (inactive)	56.9 µM (inactive)	> 100 µM (inactive)	> 100 µM (inactive)	> 100 µM (inactive)	> 100 µM (inactive)		40.8 µM (inactive)	> 100 µM (inactive)
O=C(O)C1C2CCC(O2)C1C(=O)N1CCCCC1 (centres undefined)	2.57 µM (inactive)	9.4 µM (inactive)	4.54 µM (inactive)	3.26 µM (inactive)	15.7 µM (inactive)	12.7 µM (inactive)	12.1 µM	2.99 µM (inactive)	4.51 µM (inactive)	11.7 µM (inactive)	19.9 µM (inactive)	12.7 µM (inactive)	5.26 µM (inactive)	4.88 µM (inactive)		
OCc1ccc(C2CC(c3ccco3)=NN2c2ccccc2)o1 (centres undefined)	> 100 µM (inactive)	> 100 µM (inactive)	> 100 µM (inactive)	> 100 µM (inactive)		> 100 µM (inactive)	> 100 µM	> 100 µM (inactive)	20 µM (inactive)	> 100 µM (inactive)	> 100 µM (inactive)	> 100 µM (inactive)	> 100 µM (inactive)	> 100 µM (inactive)	86.3 µM (inactive)	
CCOC(=O)NC(=O)c1cn(CCOC(=O)CCCCCCCCC(=O)OCCn2cc(C(=O)NC(=O)OCC)c(=O)[nH]c2=O)c(=O)[nH]c1=O	> 100 µM (inactive)	> 100 µM (inactive)	> 100 µM (inactive)	> 100 µM (inactive)		> 100 µM (inactive)	> 100 µM	> 100 µM (inactive)	> 100 µM (inactive)	23.9 µM (inactive)	> 100 µM (inactive)	> 100 µM (inactive)	> 100 µM (inactive)		> 100 µM (inactive)	> 100 µM (inactive)
COc1cc(C(C#N)NNC(=O)c2ccccc2O)ccc1O (centres undefined)	7.03 µM (inactive)	3 µM (inactive)	0.873 µM (active)	9.64 µM (inactive)	3.18 µM (inactive)	2.79 µM (inactive)	4.06 µM	4.11 µM (inactive)	0.356 µM (active)	2.07 µM (inactive)	0.701 µM (active)	4.78 µM (inactive)	0.887 µM (active)	3.14 µM (inactive)	0.622 µM (active)	5.46 µM (inactive)
Cc1cccc(Cl)c1NC(=O)c1cccc([N+](=O)[O-])c1O	31.9 µM (inactive)	26.8 µM (inactive)	31.9 µM (inactive)	21.2 µM (inactive)	43.2 µM (inactive)	43.8 µM (inactive)	35.6 µM		33.9 µM (inactive)	28.1 µM (inactive)	19.8 µM (inactive)	20.1 µM (inactive)	25.4 µM (inactive)	20.4 µM (inactive)	36.7 µM (inactive)	46.1 µM (inactive)
